“Also recorded” adds a separate entry of the source.
How the values were obtained:
[1] = system: COLO205 cells; assay: QPatch electrophysiology of endogenous calcium-activated chloride current in COLO205 cells; format: cell-based, human; conditions: 170 nM free calcium
Text: HEK293 cells stably expressing the TMEM16A (acd) variant were purchased from SB Drug Discovery. The HEK293 TMEM16A (abc) stable cell line was from ChanTest and COLO-205 cells were purchased from ATCC. The same standard buffers and recording conditions listed below were used for QPatch studies on all three cell lines.
Recording Solutions: were made weekly as below and stored at room temperature until used. It is recommended not to add ATP to internal solution until immediately before using on the QPatch. The external buffer (in mM) was 140 NaCl, 4 KCl, 2 CaCl2, 1 MgCl2, 10 HEPES, 10 Glucose, pH7.4, while the internal buffer (in mM) was 110 CsCl, 20 TEA-Cl, 5.374 CaCl2, 1.75 MgCl2, 10 EGTA, 10 HEPES, 4 Na2ATP, pH 7.2.
Once established in whole-cell configuration, cells were clamped to a holding potential (Vhold) of 0 mV on 48 well single hole patch plate. A standardized IV protocol was used to elicit ionic current through the TMEM16A chloride channel at 20 s intervals. Steady-state voltage pulses were from −100 mV to +100 mV in +20 mV steps for a duration of 500 ms. After each pulse the voltage was returned to −100 mV for 50 ms to obtain tail currents, and then returned to the holding potential of 0 mV until the beginning of the next sweep. Block of TMEM16A chloride current due to test article was measured at the +100 mV depolarization sweep of the third and final IV protocol run per concentration addition. This ensures a minimum of 60 s per concentration incubation before measuring current block. Currents were acquired at 10 kHz and filtered at 2 kHz, leak subtraction and Rseries were disabled. […]
A cumulative concentration response was measured where each cell is exposed to five concentrations of test article with a dilution factor of 1:5 (e.g., 0.048, 0.24, 1.2, 6, and 30 μM). Cells were recorded for ∼60 s per solution/compound addition. […] Recovery/washout was monitored for a final minute with a final external solution addition.
Peak outward current magnitude at 540 ms through 550 ms of the IV step was measured for each sweep at […]. […]

[2] = system: mouse airway rings; assay: Duration of bronchodilation after washout and carbachol re-challenge, mouse airway rings; conditions: EC75 carbachol, preliminary
Description: Mouse airway rings were exposed to a typical Wake-Up procedure including the use of KPSS and discovery of EC75 CCh dose responses. However, no isoproterenol was used to observe tissue relaxation as part of the qualification procedure. With pre-contraction with EC75 CCh for >30 min, rings were subjected to a compound dose-response, followed by a complete washout of compound, and re-contracted with EC75 CCh. Traces were recorded for several hours thereafter and normalized to theophylline as control of 100% relaxation.

[3] = system: mouse tracheal rings; assay: Bronchodilation of cytokine-treated mouse tracheal rings; conditions: overnight IL-1β, TNFα, IL-13 100 ng/ml, EC75 carbachol
Description: Airway rings were treated overnight in 2 ml DMEM + PSG/HEPES/AA/NaPyr buffer alone or with the same solution supplemented with 100 ng/ml of mTNFα, mIL-13 and mIL-1β. Unlike like the typical Wake-Up protocol and ring qualifying tests, mouse tracheal rings were not exposed to KPSS and rings were not observed to relax with a β-agonist following discovery of CCh dose-responses. After several washes with PSS, EC75 concentrations of CCh were used to pre-contract rings for >30 min alone or in the presence of cytokines.

[4] = system: mouse tracheal rings; assay: β-agonist use-dependent desensitization of mouse tracheal rings; conditions: add-on after isoproterenol round 2
Text: Standard procedures were used to prepare and mount tissues.

[5] = system: Wnt/β-catenin transcription; assay: Wnt/β-catenin transcription TOPFlash reporter assay; format: cell-based; conditions: Wnt TopFlash IC50 over TMEM16A eYFP IC50
[6] = system: HCT116; set-up: method as in Li et al., 2014; conditions: ref Li et al., 2014, read-out: IC50 inhibition of proliferation; cited from earlier work
[7] = system: COLO205; set-up: method as in Li et al., 2014; conditions: ref Li et al., 2014, read-out: IC50 inhibition of proliferation; cited from earlier work

SMILES	block of native chloride current in COLO205 cells [1]	duration of bronchodilation after washout and re-challenge [2]	bronchodilation of cytokine-treated airways [3]	IC50 Ratio, Wnt/TMEM16A [5]	also measured
N#Cc1c(C(F)(F)F)cc(O)n2c1nc1ccccc12 [1PBC]	fully blocked	–	–	–	–
CCc1oc2ccccc2c1C(=O)c1cc(Br)c(O)c(Br)c1 [Benzbromarone]	fully blocked	long lasting; also recorded: sustained bronchodilation lasting several hours	fully bronchodilated	–	–
CC(C)(C)C1CCc2c(sc(NC(=O)c3ccco3)c2C(=O)O)C1 (stereo not shown) [CaCCinh-A01]	fully blocked	–	–	–	–
COc1cc([N+](=O)[O-])ccc1NC(=O)c1cc(Cl)c2ccccc2c1O [Cpd 4]	–	–	–	–	% relaxation after add-on to desensitized ring ([4]; EC50 carbachol): 98.9%; % relaxation after add-on to desensitized ring ([4]; EC75 carbachol): 95.4%
O=C(Nc1ccc(Cl)cc1)c1cc(Cl)ccc1O [Cpd 5]	–	–	–	3.51	–
O=C(Nc1ccc([N+](=O)[O-])cc1Cl)c1cc(Cl)ccc1O [Niclosamide]	–	long lasting; also recorded: sustained bronchodilation lasting several hours	fully bronchodilated	2.62	IC50 [6]: 370 nM; IC50 [7]: 980 nM
